Results published in patent US20250367182A1, “METHOD FOR INDUCING IN-SITU REGENERATION OF MAMMAL AND USE THEREOF” (INSTITUTE OF ZOOLOGY, CHINESE ACADEMY OF SCIENCES, priority 2022, published 2025).
Entries after “also recorded” stand apart in the source; their conditions may differ. Where two headings read alike, the source gives them in different places.

What was measured:
[1] = system: 2 mm diameter mouse ear hole; test: 2 mm ear hole trauma mouse model (ear hole closure); parameters: species or system C57BL/6 mice; details: in vivo
[2] = system: 4 mm diameter mouse ear hole; parameters: species or system mice; details: in vivo
[3] = system: bleomycin-induced lung fibrosis injury; test: bleomycin-induced chronic injury model of lung fibrosis; assay type: in vivo, C57B1/6 mice
[4] = system: scalded skin; test: mouse skin scald model; assay type: in vivo, mice; details: CHX 20 mg/kg
[5] = system: STING-TBK1-IRF3 signaling pathway / ISG genes in mouse primary fibroblasts and macrophages; test: CHX-induced ISG gene expression in primary cells (RNA-seq, Ribo-seq, qPCR, immunofluorescence); assay type: cell-based
[6] = system: protein translation process
[7] = CHX 20 mg/kg, lung function testing

COc1ccc(C[C@H]2NC[C@H](O)[C@H]2OC(C)=O)cc1 [Ani, Anisomycin]
healing of the 2 mm ear hole [1]: significantly promote the healing of the ear hole

C[C@@H]1C[C@@H]([C@H](O)CC2CC(=O)NC(=O)C2)C(=O)[C@@H](C)C1 [CHX, 4-((R)-2-((1S,3S,5S)-3,5-dimethyl-2-oxocyclohexyl)-2-hydroxyethyl)piperidine-2,6-dione]
HE staining of auricle tissue [1]: healed the tissue after damage and formed granulation tissue
HE staining of auricle tissue: healing of trauma [1]: completely healed
HE staining of wound site: regenerated tissues [1]: regeneration of tissues and tissue derivatives such as hair follicles, glands, cartilage, muscles and blood vessels
KI67 immunohistochemical staining of auricle tissue (basal cells) [1]: expressed a large amount of KI67
closure of 2 mm ear hole wound [1]: completely closed
dose dependence of promotion of 2 mm ear hole healing [1]: dose-dependent
healing condition of 2 mm ear hole (photograph) [1]: completely closed
healing effect compared with Ani [1]: better
healing effect with different administration manners [1]: healing effects were produced; also recorded: different manners of administration had the effect of promoting regeneration
healing of the 2 mm ear hole [1]: significantly promote the healing of the ear hole
closure of 2 mm diameter ear holes ([1]; ip): promoted the closure
wound area of 4 mm ear hole [2]: significantly reduced
survival rate ([3]; CHX 20 mg/kg i.p. every two days from 2 days after surgery, 18th day of treatment): 75%
body weight loss ([3]; CHX 20 mg/kg, ***P<0.001): significantly inhibited the body weight loss
lung fibrosis (HE staining and Sirius red staining) ([3]; CHX 20 mg/kg, after 14 days of treatment): significantly inhibited
body weight ([3]; CHX 20 mg/kg, after 15 days): ~85%
respiratory rate [3, 7]: significantly maintained normal
tidal volume [3, 7]: significantly maintained normal
tissue integrity and fibrosis (HE staining) ([3]; CHX administration started 9 days after bleomycin injury (more severe model)): significantly restored tissue integrity and reduced fibrosis
development-related genes (blood vessels, circulatory system), RNA-Seq ([3]; CHX-treated group): upregulated
genes related to respiratory system development, RNA-Seq ([3]; CHX-treated group): promoted the upregulation
fibrosis-related genes (extracellular matrix, collagen), RNA-Seq ([3]; CHX-treated group vs control after injury): significantly downregulate
collagen accumulation (Sirius red staining) [4]: reduced collagen accumulation
skin tissue regeneration (histochemical staining) [4]: significantly promoted the regeneration of epidermis, hair follicles, glands, dermis, and blood vessels
scar area ([4]; after 40 days of administration): significantly reduced scar area
expression of classical ISGs (Mx2, Ifit1, Cxcl10, Ifih1), qPCR ([5]; CHX, fibroblasts and macrophages): upregulate the expression of classical ISGs
STING-TBK1-IRF3 signaling (perinuclear STING, nuclear IRF3), immunofluorescence ([5]; CHX, in vitro): activated ISGs by activating the STING-TBK1-IRF3 signaling pathway
number of genes upregulated at both transcriptional and translational levels in both cell types ([5]; CHX, mouse primary fibroblasts and macrophages, RNA-seq and Ribo-seq): 32 genes

Cc1nn(CC(F)(F)F)cc1Nc1ncc(Br)c(NCc2ccc(S(N)(=O)=O)cc2)n1 [GSK8612]
CHX-induced ear hole regeneration [1]: significantly inhibited
expression of ISG genes induced by CHX ([5]; GSK8612 5 μM, CHX 1 μg/ml): significantly inhibited the expression of ISG genes

O=C1N[C@@H]2C(=C[C@H](O)[C@@H](O)[C@H]2O)c2cc3c(c(O)c21)OCO3 [Narciclasine]
healing of 2 mm ear holes [1]: significantly promote the healing of 2 mm ear holes
regenerated tissues in closed ear holes (histochemical and Masson staining) [1]: could regenerate tissues such as hair follicles, glands, cartilage and muscles, and tissue derivatives
inhibition of protein translation (Puromycin incorporation) ([6]; CHX as control): could significantly inhibit the protein translation process

O=C1N[C@H]2[C@H](O)[C@H](O)[C@@H](O)[C@H](O)[C@@H]2c2cc3c(c(O)c21)OCO3 [Pancratistatin]
closure of 2 mm ear hole [1]: completely closed
nature of the closure (HE and Masson staining) [1]: identified as a regeneration event
inhibition of protein translation (Puromycin incorporation) [6]: could significantly inhibit the protein translation process
